The target of one data set is human LPA1 (Homo sapiens, UniProt Q92633). Kind of data set: In vitro functional assay of lysophosphatidic acid receptor 1 activity (calcium flux, Fluo-4 NW, LPA 18:1 at EC80). It counts as cell-based. The note with it: B103 cells stably expressing human LPA1. The method, then: Primary compound plates were prepared in 100% DMSO (Sigma-Aldrich), secondary compound plates were prepared at 10× concentration in DMEM (Invitrogen), and tertiary compound plates were prepared at 3× concentration in assay buffer containing HBSS (no Ca^+2/Mg^+2, Invitrogen) and 0.1% BSA (Sigma-Aldrich). Fluo-4 NW calcium assay dye (Invitrogen) was prepared as per manufacturer's recommendations in assay buffer. B103 cells stably expressing human LPA1 (J. Chun lab, UCSD) were grown to confluency in DMEM media (Invitrogen) containing 10% FBS (ATCC), 10% Penicillin-Streptomycin (Sigma-Aldrich) and 50 μg Geneticin (Sigma-Aldrich), and detached with Accutase (Sigma-Aldrich) prior to assay. The freshly detached cells were resuspended in growth media and plated in black, clear-bottom 96-well plates (Costar) containing compound (i.e., secondary compound plate) at a density of 5×10^4 cells/well. Once plated, cells were left at room temperature for 30 minutes and then transferred to a 37° C., 5% CO2 incubator for 24 hours. […] Finally, lysophosphatidic acid (18:1) at the EC80 concentration was added and calcium flux measured using FlexStation 3 (Molecular Devices). Sigmoidal dose-response curves were generated by measuring […] over 45 sec and calculating the area under the curve. […]

Data set [1] is described as follows: Rat PK: brain penetration after PO dosing. It is filed as in vivo. The note with it: 10 mg/kg, Rat PK: Dosing PO @ 10 mpk; for Kp uu: read-out: Kp,uu (unbound brain-to-plasma partitioning).

The text below walks through data of US20260272906A1, “PERIPHERALLY RESTRICTED LPAR1 ANTAGONISTS AND USES THEREOF” (CONTINEUM THERAPEUTICS, INC., priority 2024, published 2026).

pIC50: −log10 of the molar value.

Chain of human LPA1 (Q92633 whole entry): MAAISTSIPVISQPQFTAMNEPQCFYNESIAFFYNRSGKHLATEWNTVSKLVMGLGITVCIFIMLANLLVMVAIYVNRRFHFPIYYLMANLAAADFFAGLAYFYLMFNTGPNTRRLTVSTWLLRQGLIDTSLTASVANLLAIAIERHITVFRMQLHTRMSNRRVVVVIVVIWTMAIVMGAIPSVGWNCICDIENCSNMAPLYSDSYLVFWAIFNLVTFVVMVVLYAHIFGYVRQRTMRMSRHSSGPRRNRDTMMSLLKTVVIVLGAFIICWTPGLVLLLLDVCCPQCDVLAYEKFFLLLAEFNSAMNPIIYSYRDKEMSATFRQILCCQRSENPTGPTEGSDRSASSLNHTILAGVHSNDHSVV

Turning to `COc1ccc(NC(=O)N(c2cnccc2C(C)C)[C@H]2CC[C@H](C(=O)O)CC2)c(OC(F)F)n1` [Example 1, trans-4-(3-(2-(difluoromethoxy)-6-methoxypyridin-3-yl)-1-(4-isopropylpyridin-3-yl)ureido)cyclohexane-1-carboxylic acid], the pIC50 (in general, −log10 of the IC50, conventionally taken in molar units) on human LPA1 is 7.00 to 8.00. Also, in data set [1], the concentration at 2 h worked out at 290 nM and the Kp uu amounted to 0.05.
The corresponding values for `COc1ccc(NC(=O)N(c2ncccc2C(C)C)[C@H]2CC[C@H](C(=O)O)CC2)c(OC(F)F)n1` [Example 2, trans-4-(3-(2-(difluoromethoxy)-6-methoxypyridin-3-yl)-1-(3-isopropylpyridin-2-yl)ureido)cyclohexane-1-carboxylic acid] are 7.00 to 8.00, 2100 nM and 0.15.
